# According to US6495563B1, “Method and composition for prevention of scar formation in glaucoma filtration bleb and drainage fistula” (Synphora AB, priority 1999, dated 2002):
# Marks after values point to notes of the source that are not given here.
# Assays:
# Human fibroblasts = test: Antiproliferative effect on cultured human fibroblasts (crystal violet absorbance as measure of cell number); type: cell-based; conditions: for Effect on cell number of the cultures (decrease in crystal violet absorbance): 10^−6 to 10^−3 Moles/l, 5-7 days; for EC50 value for reducing cell number / EC50: 5-7 days of culture, crystal violet absorbance at 595 nm; for EC50: read-out: EC50 value for reducing cell number
# Protocol: The following prostaglandins, purchased from Cayman Chemicals, Ann Arbor, Mich., USA, and Biomol Feinchemikalien GmbH, Hamburg, Germany were used in the experiments: prostaglandin A1 (PGA1), prostaglandin A2 (PGA2), prostaglandin J2 (PGJ2) and 15-deoxy-Δ^12,14-prostaglandin J2 (15-Δ^12,14-PGJ2). The chemical structures of the test compounds are depicted in FIG. 1. All test compounds were stored at −20° C., and fresh solutions containing the appropriate concentrations of the test compounds were made every second day. The test compounds were initially dissolved in ethanol and then diluted in the culture medium.
# Human fibroblasts were used at passage 22-24. The culture medium consisted of DMEM with 10% fetal calf serum and 50 μg/ml gentamycin. Around 10,000 cells were seeded into each well of 48 well microtiter plates. The total volume of culture medium was about 250 μl/well. The cells were incubated at 37° C. with 5% CO2 humidified air. The culture medium was changed every second day, and at the same time new, freshly prepared prostaglandin was added to the medium. The test compounds were investigated at several concentrations in the range of 10^−6 to 10^−3 Moles/l. […] The concentrations in the figures depicting the results are expressed as the negative logarithm The culture medium alone served as control. After 5-7 days of culture the experiment was terminated by fixation of the cells in 1% glutaraldehyde. The cells were then stained with 0.1% crystal violet, and the stain was eluted with 2.5% sodium lauryl sulphate. The absorbance of the colored solutions was determined spectrophotometrically. Each experiment was performed at least in duplicate.
# [1] = system: New Zealand White adult rabbits; test: Postsurgical intraocular inflammation after extracapsular lens extraction in rabbits; type: in vivo, rabbit; conditions: 10 μg/dose twice daily; for Number of animals, operated eye Normal / Number of animals, operated eye Inflamed: 5 animals
# From the text: Ten New Zealand White adult rabbits underwent extracapsular lens extraction in one eye to investigate the effect of PGA2-E on postsurgical inflammation. Lens extraction was used as a model since this procedure is always followed by some inflammatory changes. The contralateral eye was used as an untreated control eye in each animal. The operated eyes were given routine postsurgical treatment with corticosteroids and mydriatics for about one month. From the day after the surgery and for a total of 4 months 5 of the animals were treated with PGA2-IE eye drops twice daily (10 μg/dose) in the operated eye while the contralateral control (non-operated) eye received no treatment. The other 5 animals were treated with the vehicle only twice daily for the same period of time. […] The signs of inflammation comprised miosis, iridial hyperemia, flare and fibrin accumulation in the anterior chamber, and additional anti-inflammatory medication had to be given to these animals.
# [2] = system: New Zealand White adult rabbits; test: Intraocular pressure after modified trabeculectomy surgery in rabbits with topical eye drops; type: in vivo, rabbit
# Protocol: Ten New Zealand White adult rabbits underwent modified unilateral trabeculectomy surgery and were treated with corticosteroids and mydriatics postoperatively for about one month according to a clinical protocol. Starting the same day as the surgery was performed, the operated eye in five animals was in addition treated twice daily with PGA2-IE eye drops (10 μg/dose) for 4 months, while in the other five animals the operated eye was treated with vehicle only for the same period of time. The intraocular pressure was measured throughout the treatment period at least every second week. […] From FIG. 4 it is apparent that the difference in intraocular pressure between the vehicle-treated operated and control eyes steadily diminished with time which was quite opposite to the difference in traocular pressure between the PGA2-IE-treated operated and control eyes in FIG. 5. Thus it appears that even during this short treatment period (4 months) a difference in the level of intraocular pressure reduction between the PGA2-IE treated and vehicle-treated operated eyes is manifested, and at the end of the treatment period the difference in intraocular pressure reduction was statistically significant (p<0.05) (Table 1).
compound,measurement,setting,value
"CCCCC/C=C/C=C1/C(=O)C=C[C@@H]1C/C=C\CCCC(=O)O [15-deoxy-Δ^12,14-PGJ2, 15-deoxy-Δ^12,14-prostaglandin J2]",Effect on cell number of the cultures (decrease in crystal violet absorbance),Human fibroblasts,effectively reduced the cell number
"CCCCC[C@H](O)/C=C/[C@H]1C=CC(=O)[C@@H]1CCCCCCC(=O)O [PGA1, prostaglandin A1]",Effect on cell number of the cultures (decrease in crystal violet absorbance),Human fibroblasts,effectively reduced the cell number
"CCCCC[C@H](O)/C=C/[C@H]1C=CC(=O)[C@@H]1C/C=C\CCCC(=O)OC(C)C [PGA2-IE, PGA2-isopropyl ester]","Number of animals, operated eye Normal",[1]; 2 months after surgery,3
same,"Number of animals, operated eye Inflamed","[1]; 2 months after surgery, one only slightly inflamed",2*
same,Anti-inflammatory effect in the eye,[1]; 4 month treatment,remarkable anti-inflammatory effect
same,"Number of animals, operated eye Inflamed",[1]; 4 months after surgery,1
same,"Number of animals, operated eye Normal",[1]; 4 months after surgery,4
same,Maintenance of the intraocular pressure at a reduced level after surgery compared with vehicle,"[2]; 4 months, 10 μg/dose twice daily",clear tendency towards better maintenance of the intraocular pressure at a reduced level
same,Adverse effects in the eye (local inflammation or increased intraocular pressure),"[2]; 4 months, 10 μg/dose twice daily topical",no adversarial effects in the eye
same,"Intraocular pressure, operated eye","[2]; end of 4 month treatment, 10 μg/dose twice daily eye drops, n=5",17.2 ± 2.9 mmHg
same,"Intraocular pressure, difference between control eye and operated eye","[2]; end of 4 month treatment, 10 μg/dose twice daily eye drops, n=5, p<0.05 vs vehicle group",3.8 ± 1.0 mmHg
"CCCCC[C@H](O)/C=C/[C@H]1C(=O)C=C[C@@H]1C/C=C\CCCC(=O)O [PGJ2, prostaglandin J2]",EC50 value for reducing cell number,Human fibroblasts,about −4.75 log units
same,EC50,Human fibroblasts,~20 µM
same,Effect on cell number of the cultures (decrease in crystal violet absorbance),Human fibroblasts,effectively reduced the cell number
"CCCCC[C@H](O)/C=C/[C@H]1C=CC(=O)[C@@H]1C/C=C\CCCC(=O)O [PGA2, prostaglandin A2]",EC50 value for reducing cell number,Human fibroblasts,around −5.5 log units
same,EC50,Human fibroblasts,~3 µM
same,Effect on cell number of the cultures (decrease in crystal violet absorbance),Human fibroblasts,effectively reduced the cell number
